Source: patent publication US7649012B2, “Compounds, pharmaceutical compositions containing same, and methods of use for same” (FASgen, Inc., priority 2002, dated 2010)
Values after ≈ are worked out from the molar mass of the structure shown. Where two headings read alike, the source gives them in different places.

What was measured:
Type in all cases: cell-based
[1] = system: MCF-7 human breast cancer cells; assay: XTT cytotoxicity assay; details: MCF7, MCF-7, 72 hours, some cells marked (M)
Experimental: The XTT assay is a non-radioactive alternative for the [^51 Cr] release cytotoxicity assay. XTT is a tetrazolium salt that is reduced to a formazan dye only by metabolically active, viable cells. The reduction of XTT is measured spectrophotometrically as OD490-OD650.
To measure the cytotoxicity of specific compounds against cancer cells, 9×10^3 MCF-7 human breast cancer cells, obtained from the American Type Culture Collection are plated per well in 96 well plates in DMEM medium with 10% fetal bovine serum, insulin, penicillin, and streptomycin. Following overnight culture at 37° C. and 5% CO2, the compounds to be tested, dissolved in DMSO, are added to the wells in 1 μl volume at the following concentrations: 80, 40, 20, 10, 5, 2.5, 1.25, and 0.625 μg/ml in triplicate. Additional concentrations are tested if required. 1 μl of DMSO is added to triplicate wells are the vehicle control. C75 is run at 40, 20, […], and 5 μg/ml in triplicate as positive controls. After 72 hours of incubation, cells are incubated for 4 hours with the XTT reagent as per manufacturer's instructions (Cell Proliferation Kit II (XTT) Roche). Plates are read at OD490 and OD650 on a Molecular Devices SpectraMax Plus Spectrophotometer. Three wells containing the XTT reagent without cells serve as the plate blank. XTT data are reported as OD490-OD650-Averages and standard error of the mean are computed using SOFTmax Pro software (Molecular Dynamics).
The IC50 for the compounds is defined as the concentration of drug leading to a 50% reduction in OD490-OD650 compared to controls. The OD490-OD650 are computed by the SOFTmax PRO software (Molecular Devices) for each compound concentration. IC50 is calculated by linear regression, plotting the FAS activity as percent of control versus drug concentrations. Linear regression, best-fit line, r^2, and 95% confidence intervals are determined using Prism Version 3.0 (Graph Pad Software).

[2] = system: Enterococcus faecalis (ATCC # 29212); assay: Broth microdilution MIC; details: for MIC: Enterococcus faecalis, ATCC29212
Experimental: (§1) A broth microdilution assay is used to assess the antimicrobial activity of the compounds. […] Microorganisms tested include Staphylococcus aureus (ATCC # 29213), Enterococcus faecalis (ATCC # 29212), Pseudomonas aeruginosa (ATCC # 27853), and Escherichia coli (ATCC # 25922). The assay is performed in two growth media, Mueller Hinton Broth and Trypticase Soy Broth. […] Colonies are suspended in sterile broth so that the turbidity matches the turbidity of a 0.5 McFarland standard. The inoculum is diluted 1:10 in sterile broth (Mueller Hinton or Trypticase soy) and 195 ul is dispensed per well of a 96-well plate. The compounds to be tested, dissolved in DMSO, are added to the wells in 5 ul volume at the following concentrations: 25, 12.5, 6.25, 3.125, 1.56 and 0.78 ug/ml in duplicate. Additional concentrations are tested if required. 5 ul of DMSO added to duplicate wells are the vehicle control. Serial dilutions of positive control compounds, vancomycin (E. faecalis and S. aureus) and tobramycin (E. coli and P. aeruginosa), are included in each run. After 24 hours of incubation at 37° C., plates are read at OD600 on a Molecular Devices SpectraMax Plus Spectrophotometer. Average OD600 values are computed using SOFTmax Pro Software (Molecular Devices) and MIC values are determined by linear regression analysis using Prism version 3.02 (Graph Pad Software, San Diego).

[3] = system: Escherichia coli (ATCC # 25922); assay: Broth microdilution MIC; details: for MIC: Escherichia coli, ATCC25922
Experimental: as §1

[4] = system: Pseudomonas aeruginosa (ATCC # 27853); assay: Broth microdilution MIC; details: for PSAE/MH(MIC): Mueller Hinton Broth; for PSAE/Tsoy(MIC): Trypticase Soy Broth
Experimental: as §1

[5] = system: Staphylococcus aureus (ATCC # 29213); assay: Broth microdilution MIC; details: for MIC: Staphylococcus aureus, ATCC29213
Experimental: as §1

[6] = Trypticase Soy Broth, read-out: EF/Tsoy(MIC)
[7] = Mueller Hinton Broth, read-out: SA/MH(MIC)
[8] = Trypticase Soy Broth, read-out: SA/Tsoy(MIC)
[9] = Mueller Hinton Broth, read-out: EF/MH(MIC)
[10] = Mueller Hinton Broth, read-out: Ecoli/MH(MIC)
[11] = Trypticase Soy Broth, read-out: Ecoli/Tsoy(MIC)

SMILES	IC50 [1]	MIC [2, 6]	EF/MH(MIC) ([2]; Mueller Hinton Broth)	Ecoli/MH(MIC) ([3]; Mueller Hinton Broth)	Ecoli/Tsoy(MIC) ([3]; Trypticase Soy Broth)	PSAE/MH(MIC) [4]	PSAE/Tsoy(MIC) [4]	MIC [5, 7]	MIC [5, 8]	MIC [2, 9]	EF/Tsoy(MIC) ([2]; Trypticase Soy Broth)	MIC [3, 10]	MIC [3, 11]	SA/MH(MIC) ([5]; Mueller Hinton Broth)
C=CCOC1=CC(=O)S[C@]1(C)CCCCCC (racemic)	9 ± 1.1 mg/L (≈ 35.4 µM)	158 mg/L (≈ 621 µM)	Neg	Neg	Neg	Neg	Neg	73 mg/L (≈ 287 µM)	54 mg/L (≈ 212 µM)					
CCCCCCCCC1(C)SC(=O)C(C)=C1OC (stereo not drawn)	17.3 ± 5.9 mg/L (≈ 64 µM)	94 mg/L (≈ 348 µM)		Neg	Neg	Neg	Neg	132 mg/L (≈ 488 µM)	108 mg/L (≈ 399 µM)	208 mg/L (≈ 769 µM)				
CCCCCC[C@@]1(C)SC(=O)C=C1OCC(=O)NCC(=O)OC (racemic)	40.5 ± 5.1 mg/L (≈ 118 µM)		Neg		Neg	Neg	Neg	69 mg/L (≈ 201 µM)	111 mg/L (≈ 323 µM)		Neg	156 mg/L (≈ 454 µM)		
C=C/C(C)=C/C1(C)SC(=O)C=C1O (stereo not drawn)	> 80 mg/L							235 mg/L (≈ 1200 µM)	102 mg/L (≈ 520 µM)	220 mg/L (≈ 1120 µM)		290 mg/L (≈ 1480 µM)		
C#CCOC1CC(=O)S[C@]1(C)CCCCCC (mixture of isomers)	8.9 ± 2.3 mg/L	83 mg/L	Neg		Neg	Neg	Neg	53 mg/L	80 mg/L			203 mg/L		
CCCCCCCC[C@@]1(C)SC(=O)C(C(C)=O)=C1O (racemic)	125 ± 0.7 mg/L (≈ 439 µM)	2 mg/L (≈ 7.03 µM)		Neg		Neg	Neg	3.4 mg/L (≈ 12 µM)	1.4 mg/L (≈ 4.92 µM)	2.5 mg/L (≈ 8.79 µM)			177 mg/L (≈ 622 µM)	
C=CCOC1=CC(=O)S[C@]1(C)CCCCCCCC (racemic)	14.5 ± 1.5 mg/L (≈ 51.3 µM)	238 mg/L (≈ 843 µM)		Neg	Neg	Neg	Neg	127 mg/L (≈ 450 µM)	85 mg/L (≈ 301 µM)	238 mg/L (≈ 843 µM)				
CCCC/C=C/C=C/C1(C)SC(=O)C=C1O (stereo not drawn)	59.4 ± 6.4 mg/L (≈ 249 µM)	42 mg/L (≈ 176 µM)		Neg		Neg	Neg		55 mg/L (≈ 231 µM)	78 mg/L (≈ 327 µM)			263 mg/L (≈ 1100 µM)	Neg
CCCCCCCC[C@@]1(C)SC(=O)C=C1OCC(=O)OCC (racemic)	35.3 ± 10.4 mg/L (≈ 107 µM)			Neg	Neg	Neg	Neg		83 mg/L (≈ 253 µM)	86 mg/L (≈ 262 µM)	Neg			Neg
C=CCOC(=O)OC1=CC(=O)S[C@]1(C)CCCCCCCC (racemic)	34.9 ± 10 mg/L (≈ 107 µM)	75 mg/L (≈ 230 µM)				Neg	Neg	57 mg/L (≈ 175 µM)	28 mg/L (≈ 85.8 µM)	79 mg/L (≈ 242 µM)		82 mg/L (≈ 251 µM)	87 mg/L (≈ 266 µM)	
CCCCCCCC[C@@]1(C)SC(=O)C(C(=O)C(F)(F)F)=C1O (racemic)	18.4 ± 2.7 mg/L (≈ 54.4 µM)					Neg	Neg	54 mg/L (≈ 160 µM)	65 mg/L (≈ 192 µM)					
CCCCCCC1(C)SC(=O)C=C1OC (stereo not drawn)	9.4 ± 1.5 mg/L (≈ 41.2 µM)	126 mg/L (≈ 552 µM)		Neg		Neg	Neg	45 mg/L (≈ 197 µM)	48 mg/L (≈ 210 µM)	43 mg/L (≈ 188 µM)			264 mg/L (≈ 1160 µM)	
C=CCNC(=O)COC1=CC(=O)S[C@]1(C)CCCCCCCCCC (racemic)	12.1 ± 0.6 mg/L (≈ 32.9 µM)					Neg	Neg	28 mg/L (≈ 76.2 µM)	31 mg/L (≈ 84.3 µM)					
